Data on 2 compounds can be found in patent US6566086B1, “Diagnostic kit for detecting creatine levels” (FAL Diagnostics, priority 2000, dated 2003).

Assay [1] concerns animal models of Huntington's disease. To be noted: oral supplementation; cited from earlier work.
Assay [2] in a line: 1H NMR detection of the interaction of substance 42 with creatine. The class given is binding. To be noted: CD3OD solution; creatine added to the test solution. As to the method: The ability of substance 42 to detect creatine was evaluated by ^1H NMR spectroscopy. […] (Bell, T. W. et al. 36th National Organic Symposium, U. of Wisconsin, Madison, Wis., Jun. 13, 1999-Jun. 17, 1999). [drawing 32] [drawing 33]

Consider `N=C1NCCN1CC(=O)O` [cyclocreatine, 1-carboxymethyl-2-iminoimidazolidine], for which, in assay [1], the “protection from malonate lesions” value is “protect the animals from malonate lesions”.
`O=C(O)c1ccc2c(n1)-c1nc3nc4c(cc3cc1CC2)CCc1ccc(C(=O)O)nc1-4` [Substance 42]: in assay [2], the “ability to detect creatine (interaction with creatine by 1H NMR)” value was “interaction of creatine with substance 42 was detected”.
